For 15 molecules, EC50, Emax and inhibition results are on record in patent US10463651B2, “3-(1H-pyrrolo[3,2-C]pyridin-2-YL)-1H-indazoles and therapeutic uses thereof” (Samumed, LLC, priority 2015, dated 2019).

Common to all, as to format: cell-based
The subject of assay [1] is primary human mesenchymal stem cells (hMSCs). Put plainly: Induction of chondrogenesis in hMSCs (Rhodamine B / Nile Red nodule imaging). Conditions: for EC50: concentration required to induce 50% levels of chondrogenesis vs TGF-β3 positive control, read-out: Conc (nM) of 50% TGF-β3 activity; for Emax: maximum activity relative to TGF-β3 (10 ng/mL) positive control, read-out: Max. Activity as % TGF-β3 activity. From the text:
Representative compounds were screened using primary human mesenchymal stem cells (hMSCs) to determine their ability to induce chondrogenesis (process by which cartilage is developed).
Primary human mesenchymal stem cells (hMSCs) were purchased from Lonza (Walkersville, Md.) and expanded in Mesenchymal Stem Cell Growth Media (Lonza). Cells between passage 3 and 6 were used for the experiments.
Area of nodules in each well was normalized to the average of 3 DMSO treated wells on the same plate using Excel (Microsoft Inc.). The normalized averages (fold change over DMSO) of 2 or 3 replicate wells for each compound concentration were calculated. Due to solubility limitations of some of the compounds, curve fitting was incomplete leading to inaccurate EC50 determinations.
Using TGF-β3 as a positive control, the concentration of representative compounds required to induce 50% levels of chondrogenesis is reported. In addition, the maximum activity of each compound and the respective dose that each compound reached maximum chondrogenesis activity is reported.

Assay [2] concerns primary human fibroblasts derived from IPF patients (LL29 cells) treated with TGF-β1. Put plainly: Inhibition of the fibrotic process (αSMA staining) in TGF-β1-treated fibroblasts. Conditions: Fibroblast, 96 h, % αSMA-positive LL29 cells, TGF-β1 20 ng/mL, 4 days. In outline: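 LL29 fibroblasts from IPF patients, 1,500 cells/well in F12 with 1% FBS, stimulated with TGF-β1; TGF-β1 plus DMSO wells as controls. Incubation 4 days, then SYTOX green 1 μM final for 30 min at room temperature. Fibrotic response read as αSMA staining.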

In assay [3] the test system is IL-6 (THP-1 cells). Put plainly: IL-6 inhibition in LPS-stimulated THP-1 cells (HTRF). To be noted: Homo sapiens; for pEC50: IL6 by HTRF, THP-1 cells, 500 ng/mL LPS, 22 hours; for inhibition at 10 µM: THP-1, read-out: percent inhibition at 10 M. Put shortly:
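THP-1 cells, pre-cultured 24 h in 1% FBS medium, treated with compound 2 h at 37 °C, then stimulated with 500 ng/mL LPS for 22 h. Secreted IL-6 measured by HTRF as the 665/620 nm ratio. Values normalized to DMSO; EC50 from four-parameter fit, duplicates.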
(In TR-FRET formats the signal depends on donor and acceptor labels being close together.)

Assay [4] concerns SW480 colon cancer cells. The assay is described as follows: Cell viability assay (CellTiter-Blue). Conditions: Homo sapiens; for pEC50: 96 h, SW480 cell viability, four days, CellTiter-Blue; for inhibition at 10 µM: SW480, 96 h, read-out: percent inhibition at 10 μM. Put shortly: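 Fluorescence from resazurin reduced to resorufin by metabolically active cells was the read-out, taken after ~3 h with CellTiter-Blue.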
(In general: The colour change of resazurin is a common sign of viable cells or microbes.)

Assay [5] concerns Wnt activity (Sp5-Luc reporter, SW480 colon carcinoma cells). Put plainly: Screening assay for Wnt activity (Sp5-Luc reporter gene assay in SW480 cells). Conditions: Homo sapiens; for inhibition at 10 µM: SW480, read-out: percent inhibition at 10 μM; for pEC50: Sp5-Luc reporter, SW480 cells, incubated overnight. Put shortly: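 SW480 colon carcinoma cells stably carrying Sp5 promoter (eight TCF/LEF sites)-driven firefly luciferase, plated at 4,000 cells/well in 1% FBS medium and incubated overnight at 37° C. Luminescence normalised to DMSO-only cells; EC50 from four-parameter variable-slope nonlinear regression.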

The term pEC50 denotes −log10 of the EC50, conventionally taken in molar units. One may read the inhibition as the share of the control response that was lost under treatment.

The structures appear in SMILES notation. pEC50: −log10 of the molar value.

For `CC(C)CC(=O)Nc1cncc(-c2ccc3[nH]nc(-c4cc5c(-c6ccncc6)nccc5[nH]4)c3c2)c1` [Compound 114, 3-Methyl-N-(5-(3-(4-(pyridin-4-yl)-1H-pyrrolo[3,2-c]pyridin-2-yl)-1H-indazol-5-yl)pyridin-3-yl)butanamide], in assay [1], the EC50 worked out at 30 nM. For the same molecule, the Emax in assay [1] worked out at 95%. In addition, the negative logarithm of the EC50 (pEC50) was 5.65 in assay [2], 5.99 in assay [3], less than 5.00 in assay [4] and less than 5.00 in assay [5]. In addition, the values for the inhibition at 10 µM in assay [4] and in assay [5] were 4.1% and 39.7%, respectively.
`Nc1cncc(-c2ccc3[nH]nc(-c4cc5c(-c6ccncc6)nccc5[nH]4)c3c2)c1` [Compound 115, 5-(3-(4-(Pyridin-4-yl)-1H-pyrrolo[3,2-c]pyridin-2-yl)-1H-indazol-5-yl)pyridin-3-amine]: the EC50 in assay [1] was determined as 100 nM. Also, the Emax in assay [1] was 77%. Besides, the negative-log EC50 (pEC50) in assay [2] is 5.86; in assay [3], less than 5.00; in assay [4] it was 5.42; in assay [5], 6.18. Besides, the inhibition at 10 µM in assay [3] is 29%.
With `O=C(Nc1cncc(-c2ccc3[nH]nc(-c4cc5c(-c6ccncc6)nccc5[nH]4)c3c2)c1)C1CCCC1` [Compound 134, N-(5-(3-(4-(Pyridin-4-yl)-1H-pyrrolo[3,2-c]pyridin-2-yl)-1H-indazol-5-yl)pyridin-3-yl)cyclopentanecarboxamide], the EC50 in assay [1] was 30 nM. Also, the Emax in assay [1] worked out at 114%. Further, the pEC50 in assay [2] is 5.61; in assay [3], 5.01; in assay [4], less than 5.00; in assay [5], less than 5.00. In addition, the inhibition at 10 µM in assay [4] is 4.2%; in assay [5] it was 20.6%.
Take `CCC(=O)Nc1cncc(-c2ccc3[nH]nc(-c4cc5c(N6CCCCC6)nccc5[nH]4)c3c2)c1` [Compound 169, N-(5-(3-(4-(Piperidin-1-yl)-1H-pyrrolo[3,2-c]pyridin-2-yl)-1H-indazol-5-yl)pyridin-3-yl)propionamide]: the EC50 in assay [1] came to 10 nM. In assay [1], the Emax is 244%. In addition, the negative logarithm of the EC50 (pEC50) in assay [2] is 6.83; in assay [3] it was 7.32; in assay [4], 6.53; in assay [5] it was 6.35.
Consider `c1cncc(-c2ccc3[nH]nc(-c4cc5c(N6CCCCC6)nccc5[nH]4)c3c2)c1` [Compound 172, 3-(4-(Piperidin-1-yl)-1H-pyrrolo[3,2-c]pyridin-2-yl)-5-(pyridin-3-yl)-1H-indazole], for which the EC50 in assay [1] came out at 10 nM. The Emax in assay [1] was 172%. The pEC50 in assay [2] was 5.98; in assay [3], 6.72; in assay [4], 6.07; in assay [5], 6.32.
For the molecule `CCNCc1cncc(-c2ccc3[nH]nc(-c4cc5c(N6CCCCC6)nccc5[nH]4)c3c2)c1` [Compound 174, N-((5-(3-(4-(Piperidin-1-yl)-1H-pyrrolo[3,2-c]pyridin-2-yl)-1H-indazol-5-yl)pyridin-3-yl)methyl)ethanamine], the EC50 in assay [1] amounted to 900 nM. Moreover, the Emax in assay [1] was 301%. The negative-log EC50 (pEC50) in assay [2] is 5.84; in assay [3] it was 6.34; in assay [4] it was 6.02; in assay [5] it was 5.53.
Take `CC(C)(C)C(=O)Nc1cncc(-c2ccc3[nH]nc(-c4cc5c(N6CCCCC6)nccc5[nH]4)c3c2)c1` [Compound 176, N-(5-(3-(4-(Piperidin-1-yl)-1H-pyrrolo[3,2-c]pyridin-2-yl)-1H-indazol-5-yl)pyridin-3-yl)pivalamide]: the Emax in assay [1] turned out to be 35%. The pEC50 in assay [2] was 6.19; in assay [3], 6.46; in assay [4] it was 5.87; in assay [5] it was 5.88.
For the molecule `O=C(Cc1ccccc1)Nc1cncc(-c2ccc3[nH]nc(-c4cc5c(N6CCCCC6)nccc5[nH]4)c3c2)c1` [Compound 178, 2-Phenyl-N-(5-(3-(4-(piperidin-1-yl)-1H-pyrrolo[3,2-c]pyridin-2-yl)-1H-indazol-5-yl)pyridin-3-yl)acetamide], in assay [1], the EC50 turned out to be 900 nM. Further, the Emax in assay [1] was found to be 73%. In addition, the pEC50 was 6.30 in assay [2], 5.82 in assay [3], 5.54 in assay [4] and 5.63 in assay [5].
With `CN(C)Cc1cncc(-c2ccc3[nH]nc(-c4cc5c(N6CCCCC6)nccc5[nH]4)c3c2)c1` [Compound 181, N,N-Dimethyl-1-(5-(3-(4-(piperidin-1-yl)-1H-pyrrolo[3,2-c]pyridin-2-yl)-1H-indazol-5-yl)pyridin-3-yl)methanamine], the EC50 in assay [1] amounted to 10 nM. Moreover, the Emax in assay [1] is 220%. In addition, the negative-log EC50 (pEC50) in assay [2] was 5.48; in assay [3], less than 5.00; in assay [4], 5.71; in assay [5], 5.33. For the same molecule, in assay [3], the inhibition at 10 µM turned out to be 22.5%.
For `c1cc2[nH]c(-c3n[nH]c4ccc(-c5cncc(CN6CCCCC6)c5)cc34)cc2c(N2CCCCC2)n1` [Compound 183, 3-(4-(Piperidin-1-yl)-1H-pyrrolo[3,2-c]pyridin-2-yl)-5-(5-(piperidin-1-ylmethyl)pyridin-3-yl)-1H-indazole], the Emax in assay [1] is 48%. In addition, the pEC50 in assay [2] is 5.48; in assay [3] it was 5.03; in assay [4] it was 5.42; in assay [5], 5.38.
On to `CC(C)(C)CC(=O)Nc1cncc(-c2ccc3[nH]nc(-c4cc5c(N6CCCCC6)nccc5[nH]4)c3c2)c1` [Compound 184, 3,3-Dimethyl-N-(5-(3-(4-(piperidin-1-yl)-1H-pyrrolo[3,2-c]pyridin-2-yl)-1H-indazol-5-yl)pyridin-3-yl)butanamide], for which, in assay [1], the EC50 turned out to be 900 nM. Further, the Emax in assay [1] was 79%. The pEC50 was 5.83 in assay [2], 5.05 in assay [3], 5.81 in assay [4] and 5.69 in assay [5].
With `O=C(Nc1cncc(-c2ccc3[nH]nc(-c4cc5c(N6CCCCC6)nccc5[nH]4)c3c2)c1)C1CC1` [Compound 188, N-(5-(3-(4-(Piperidin-1-yl)-1H-pyrrolo[3,2-c]pyridin-2-yl)-1H-indazol-5-yl)pyridin-3-yl)cyclopropanecarboxamide], the EC50 in assay [1] turned out to be 900 nM. Also, the Emax in assay [1] amounted to 146%. For the same molecule, the pEC50 in assay [2] was 5.05; in assay [3], 6.42; in assay [4], 6.01; in assay [5], 5.74.
On to `O=C(Nc1cncc(-c2ccc3[nH]nc(-c4cc5c(N6CCCCC6)nccc5[nH]4)c3c2)c1)C1CCC1` [Compound 189, N-(5-(3-(4-(Piperidin-1-yl)-1H-pyrrolo[3,2-c]pyridin-2-yl)-1H-indazol-5-yl)pyridin-3-yl)cyclobutanecarboxamide], for which the Emax in assay [1] was 34%. Besides, the pEC50 is 6.47 in assay [2], 6.63 in assay [3], 6.04 in assay [4] and 6.02 in assay [5].
Turning to `FC1(F)CCN(Cc2cncc(-c3ccc4[nH]nc(-c5cc6c(N7CCCCC7)nccc6[nH]5)c4c3)c2)C1` [Compound 194, 5-(5-((3,3-difluoropyrrolidin-1-yl)methyl)pyridin-3-yl)-3-(4-(piperidin-1-yl)-1H-pyrrolo[3,2-c]pyridin-2-yl)-1H-indazole], in assay [1], the Emax was found to be 40%. Further, the pEC50 is 6.00 in assay [2], 6.59 in assay [3], 5.85 in assay [4] and 5.70 in assay [5].
As to `Cc1ccncc1-c1ccc2[nH]nc(-c3cc4c(N5CCN(C)CC5)nccc4[nH]3)c2c1` [Compound 229, 3-(4-(4-Methylpiperazin-1-yl)-1H-pyrrolo[3,2-c]pyridin-2-yl)-5-(4-methylpyridin-3-yl)-1H-indazole], the Emax in assay [1] came to 36%. Besides, the pEC50 in assay [2] is 5.53; in assay [3], 5.96; in assay [4], 5.43; in assay [5], 5.46.
